Entries after “also recorded” stand apart in the source; their conditions may differ. Counter-ions that a name gives are not always drawn. Like-named read-outs stand apart in the source and are kept apart here.
Experiments:
CYP2C9 = target: T1, CYP2C9 (Homo sapiens, UniProt P11712); assay: CYP inhibition in human liver microsomes; type: in vitro ADME
T1 construct: tissue BD Gentest; host or cells: human liver microsomes
Method: (§1) At varying concentrations, Compound 1 was incubated with human liver microsomes (HLM) in the presence of known substrates (see below) of specific CYP isoforms, in order to measure inhibition induced by Compound 1. Microsomes were incubated with known inhibitors (positive controls) of each CYP isoform, in the presence of substrate, in order to measure the metabolic activity of the microsomes.

CYP3A4 = target: T2, CYP3A4 (Homo sapiens, UniProt P08684); assay: CYP inhibition in human liver microsomes; type: in vitro ADME
T2 construct: tissue BD Gentest; host or cells: human liver microsomes
Method: as §1

CYP2C19 = target: T3, CYP2C19 (Homo sapiens, UniProt P33261); assay: CYP inhibition in human liver microsomes; type: in vitro ADME
T3 construct: tissue BD Gentest; host or cells: human liver microsomes
Method: as §1

[1] = Gravimetric Vapor Sorption (GVS); type: physicochemical
Description: The sample is hygroscopic.

OCT = target: T4, OCT (Homo sapiens, UniProt O15245); assay: Inhibition of uptake (SLC) transporters; type: in vitro ADME; details: OCT1; HEK293 cells, probe [14C]-tetraethylammonium bromide (5 μM), 0.3-600 μM tested
T4 construct: expressed in transfected cells; host or cells: HEK293 cells

[2] = Red Blood Cell (RBC) partitioning; type: in vitro ADME; details: 60 min post-exposure
Description: The compound distributed readily in tissues with a steady-state volume of distribution of 1.7 L/kg.

[3] = Dog 28-day repeat dose PO study; type: in vivo
Method: Beagle dogs (4/sex/group plus 2/sex/group for control and high dose animals for recovery) were administered daily doses of 0, 100, 250 or 400 mg/kg/day of Compound 1 in 0.5% HPMC. […] Dogs in Group 1 (Vehicle Control) were bled once at approximately 2-4 hours post-dose on those days.

[4] = Dog 7-day repeat dose PO study; type: in vivo; details: plasma, N = 1
Method: The objective was to develop a preliminary toxicity profile of Compound 1 following daily oral (gavage) administration for 7 days to male and female dogs to support dose selection for a 28-day toxicity study in dogs. Doses were selected based on the results of the MTD phase. Dose levels were 0 (Vehicle Control), 200, 350 and 400 mg/kg (1 dog/sex/group). The vehicle was 0.5% aqueous HPMC.
The animals used in this study were returned to the holding colony

pKa values = type: physicochemical
[5] = Dog single dose study, IV 10 mg/kg and oral 10 and 100 mg/kg; type: in vivo; details: for peak plasma concentration: fasted
Method: In another study, Compound 1 was administered IV as a single dose to fasted beagle dogs at 10 mg/kg and orally at 10 and 100 mg/kg. Compound 1 was rapidly and well absorbed orally, within 1 hr, reaching peak plasma concentrations of 15 and 108 μg/mL at 10 and 100 mg/kg doses, respectively. The compound distributed readily in tissues with a moderate steady-state volume of distribution (0.3 L/kg).

[6] = Elimination from plasma after intravenous administration in rats; type: in vivo; details: rat
[7] = Rat brain distribution and pharmacokinetic study; type: in vivo
Description: A rat brain distribution study performed in order to determine standard pharmacokinetic parameters and to assess the brain penetration properties of Compound 1 administered orally and intravenously.

[8] = female, 200 mg/kg, Day 1, 200 mg/kg PO, F
[9] = female, 200 mg/kg, Day 7, 200 mg/kg PO, F
[10] = female, 350 mg/kg, Day 1, 350 mg/kg PO, F
[11] = female, 350 mg/kg, Day 7, 350 mg/kg PO, F
[12] = female, 400 mg/kg, Day 1, 400 mg/kg PO, F
[13] = female, 400 mg/kg, Day 7, 400 mg/kg PO, F
[14] = male, 200 mg/kg, Day 1, 200 mg/kg PO, M
[15] = male, 200 mg/kg, Day 7, 200 mg/kg PO, M
[16] = male, 350 mg/kg, Day 1, 350 mg/kg PO, M
[17] = male, 350 mg/kg, Day 7, 350 mg/kg PO, M
[18] = male, 400 mg/kg, Day 1, 400 mg/kg PO, M
[19] = male, 400 mg/kg, Day 7, 400 mg/kg PO, M

T3 sequence (P33261 whole entry): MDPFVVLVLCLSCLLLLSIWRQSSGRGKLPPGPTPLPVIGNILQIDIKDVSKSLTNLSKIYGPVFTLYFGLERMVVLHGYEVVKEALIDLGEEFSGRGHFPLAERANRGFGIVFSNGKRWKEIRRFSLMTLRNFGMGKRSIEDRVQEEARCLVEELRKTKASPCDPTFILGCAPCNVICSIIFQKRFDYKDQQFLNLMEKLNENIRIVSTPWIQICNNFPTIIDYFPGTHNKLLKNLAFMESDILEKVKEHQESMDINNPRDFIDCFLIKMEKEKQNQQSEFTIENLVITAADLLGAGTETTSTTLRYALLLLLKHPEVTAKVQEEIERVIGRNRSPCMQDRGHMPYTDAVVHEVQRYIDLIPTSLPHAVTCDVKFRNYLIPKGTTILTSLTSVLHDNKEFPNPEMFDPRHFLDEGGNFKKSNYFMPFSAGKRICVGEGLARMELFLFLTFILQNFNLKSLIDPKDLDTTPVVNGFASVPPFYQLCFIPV
T2 sequence (P08684 whole entry): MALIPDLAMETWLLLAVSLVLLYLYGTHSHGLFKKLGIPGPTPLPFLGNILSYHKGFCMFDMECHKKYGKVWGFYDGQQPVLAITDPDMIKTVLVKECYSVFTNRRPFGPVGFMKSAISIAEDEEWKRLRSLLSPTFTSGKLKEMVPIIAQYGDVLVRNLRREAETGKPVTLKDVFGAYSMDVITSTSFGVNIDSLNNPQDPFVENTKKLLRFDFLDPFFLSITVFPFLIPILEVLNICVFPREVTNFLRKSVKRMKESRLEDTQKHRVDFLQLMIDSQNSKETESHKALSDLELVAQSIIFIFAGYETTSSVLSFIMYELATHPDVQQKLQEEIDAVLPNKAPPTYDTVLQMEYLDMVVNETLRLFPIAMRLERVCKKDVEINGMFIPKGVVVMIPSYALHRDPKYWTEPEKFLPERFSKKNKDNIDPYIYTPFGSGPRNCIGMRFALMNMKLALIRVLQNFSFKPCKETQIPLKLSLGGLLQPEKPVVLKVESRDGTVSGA
T1 sequence (P11712 whole entry): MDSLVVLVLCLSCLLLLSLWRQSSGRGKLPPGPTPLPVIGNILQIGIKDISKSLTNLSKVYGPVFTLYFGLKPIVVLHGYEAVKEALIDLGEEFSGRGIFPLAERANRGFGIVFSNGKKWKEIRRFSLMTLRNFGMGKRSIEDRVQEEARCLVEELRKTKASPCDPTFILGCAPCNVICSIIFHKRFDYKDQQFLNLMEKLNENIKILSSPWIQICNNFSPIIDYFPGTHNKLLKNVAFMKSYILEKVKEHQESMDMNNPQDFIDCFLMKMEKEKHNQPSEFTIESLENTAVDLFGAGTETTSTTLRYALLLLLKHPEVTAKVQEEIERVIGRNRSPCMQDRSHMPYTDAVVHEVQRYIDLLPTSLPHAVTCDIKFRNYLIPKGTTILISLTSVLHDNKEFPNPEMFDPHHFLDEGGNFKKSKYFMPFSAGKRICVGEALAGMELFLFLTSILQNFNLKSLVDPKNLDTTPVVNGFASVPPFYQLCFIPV
T4 sequence (O15245 whole entry): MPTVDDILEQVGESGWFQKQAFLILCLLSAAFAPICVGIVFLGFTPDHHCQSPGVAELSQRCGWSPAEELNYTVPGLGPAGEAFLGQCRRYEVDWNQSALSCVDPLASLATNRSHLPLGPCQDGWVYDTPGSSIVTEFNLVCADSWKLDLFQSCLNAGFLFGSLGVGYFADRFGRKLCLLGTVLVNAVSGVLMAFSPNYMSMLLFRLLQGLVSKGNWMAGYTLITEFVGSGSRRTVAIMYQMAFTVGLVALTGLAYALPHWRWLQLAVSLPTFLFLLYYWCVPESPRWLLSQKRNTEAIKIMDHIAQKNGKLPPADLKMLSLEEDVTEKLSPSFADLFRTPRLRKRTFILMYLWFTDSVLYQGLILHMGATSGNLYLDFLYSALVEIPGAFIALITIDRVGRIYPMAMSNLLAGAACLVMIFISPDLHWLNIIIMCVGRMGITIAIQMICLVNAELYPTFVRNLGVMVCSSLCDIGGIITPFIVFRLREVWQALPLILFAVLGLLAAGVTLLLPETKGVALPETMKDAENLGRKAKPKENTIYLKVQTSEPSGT

SMILES: CC1(C)SC(Nc2ccccc2O)=N[C@@H]1C(=O)O [Compound 1, (R)-2-(2-hydroxyphenylamino)-5,5-dimethyl-4,5-dihydrothiazole-4-carboxylic acid mono-hydrochloride]
- CYP inhibition (CYP2C9; CYP2C9, up to 100 μM): did not inhibit
- IC50 (CYP2C9; CYP2C9, read-out: IC50): > 100 µM
- IC50 (CYP2C9; human liver microsomes, known substrate of the CYP isoform, read-out: IC50 (μM) CYP 2C9): > 100 µM
- CYP inhibition (CYP3A4; CYP3A4, up to 100 μM): did not inhibit
- IC50 (CYP3A4; CYP3A4, read-out: IC50): > 100 µM
- IC50 (CYP3A4; human liver microsomes, known substrate of the CYP isoform, read-out: IC50 (μM) CYP 3A4): > 100 µM
- CYP inhibition (CYP2C19; CYP2C19, up to 100 μM): did not inhibit
- IC50 (CYP2C19; CYP2C19, read-out: IC50): > 100 µM
- IC50 (CYP2C19; human liver microsomes, known substrate of the CYP isoform, read-out: IC50 (μM) CYP 2C19): > 100 µM
- hygroscopicity ([1]; GVS): hygroscopic
- GVS uptake ([1]; between 0% and 90% RH): 6%
- IC50 (OCT): > 600 µM
- KRBC/PL ([2]; dog): < 0.25
- KRBC/PL ([2]; human): < 0.25
- KRBC/PL ([2]; monkey): < 0.25
- KRBC/PL ([2]; rat): < 0.25
- Cmax ([3]; 28-day pivotal dog study, at some doses): over 100 μg/mL
- Tmax ([3]; 28-day study, dog): ≤ 1 h
- half-life ([3]; both sexes, beagle, dog, in vivo, po, t1/2): ~3.5 h
- Tmax ([3]; both sexes, beagle, dog, in vivo, po, 100 and 250 mg/kg treatment groups, read-out: median tmax): 1 h
- t1/2 ([3]; both, beagle, dog, in vivo, po): 3.5 h
- Cmax ([3]; female, beagle, dog, in vivo, po, 100 mg/kg, Day 1, 100 mg/kg PO, F, read-out: Cmax): 69.3 µg/mL
- Cmax ([3]; female, beagle, dog, in vivo, po, 100 mg/kg, Day 15, 100 mg/kg PO, F, read-out: Cmax): 53 µg/mL
- Cmax ([3]; female, beagle, dog, in vivo, po, 100 mg/kg, Day 28, 100 mg/kg PO, F, read-out: Cmax): 60.8 µg/mL
- Cmax ([3]; female, beagle, dog, in vivo, po, 250 mg/kg, Day 1, 250 mg/kg PO, F, read-out: Cmax): 101 µg/mL
- Cmax ([3]; female, beagle, dog, in vivo, po, 250 mg/kg, Day 15, 250 mg/kg PO, F, read-out: Cmax): 94.6 µg/mL
- Cmax ([3]; female, beagle, dog, in vivo, po, 250 mg/kg, Day 28, 250 mg/kg PO, F, read-out: Cmax): 89.5 µg/mL
- Cmax ([3]; female, beagle, dog, in vivo, po, 400 mg/kg, Day 1, 400 mg/kg PO, F, read-out: Cmax): 129 µg/mL
- Cmax ([3]; female, beagle, dog, in vivo, po, 400 mg/kg, Day 15, 400 mg/kg PO, F, read-out: Cmax): 123 µg/mL
- Cmax ([3]; female, beagle, dog, in vivo, po, 400 mg/kg, Day 28, 400 mg/kg PO, F, read-out: Cmax): 131 µg/mL
- Cmax ([3]; male, beagle, dog, in vivo, po, 100 mg/kg, Day 1, 100 mg/kg PO, M, read-out: Cmax): 49.9 µg/mL
- Cmax ([3]; male, beagle, dog, in vivo, po, 100 mg/kg, Day 15, 100 mg/kg PO, M, read-out: Cmax): 50.4 µg/mL
- Cmax ([3]; male, beagle, dog, in vivo, po, 100 mg/kg, Day 28, 100 mg/kg PO, M, read-out: Cmax): 45 µg/mL
- Cmax ([3]; male, beagle, dog, in vivo, po, 250 mg/kg, Day 1, 250 mg/kg PO, M, read-out: Cmax): 104 µg/mL
- Cmax ([3]; male, beagle, dog, in vivo, po, 250 mg/kg, Day 15, 250 mg/kg PO, M, read-out: Cmax): 88 µg/mL
- Cmax ([3]; male, beagle, dog, in vivo, po, 250 mg/kg, Day 28, 250 mg/kg PO, M, read-out: Cmax): 105 µg/mL
- Cmax ([3]; male, beagle, dog, in vivo, po, 400 mg/kg, Day 1, 400 mg/kg PO, M, read-out: Cmax): 128 µg/mL
- Cmax ([3]; male, beagle, dog, in vivo, po, 400 mg/kg, Day 15, 400 mg/kg PO, M, read-out: Cmax): 112 µg/mL
- Cmax ([3]; male, beagle, dog, in vivo, po, 400 mg/kg, Day 28, 400 mg/kg PO, M, read-out: Cmax): 125 µg/mL
- AUC(0-t) [4, 8]: 582 µg·h/mL
- Cmax [4, 8]: 152 µg/mL
- half-life [4, 8]: 1.3 h
- AUC(0-t) [4, 9]: 411 µg·h/mL
- Cmax [4, 9]: 103 µg/mL
- half-life [4, 9]: 1.5 h
- AUC(0-t) [4, 10]: 834 µg·h/mL
- Cmax [4, 10]: 228 µg/mL
- half-life [4, 10]: 1.2 h
- AUC(0-t) [4, 11]: 738 µg·h/mL
- Cmax [4, 11]: 207 µg/mL
- Tmax [4, 11]: 0.5 h
- half-life [4, 11]: 2.4 h
- AUC(0-t) [4, 12]: 464 µg·h/mL
- Cmax [4, 12]: 109 µg/mL
- Tmax [4, 12]: 1 h
- AUC(0-t) [4, 13]: 751 µg·h/mL
- Cmax [4, 13]: 183 µg/mL
- half-life [4, 13]: 2.5 h
- AUC(0-t) [4, 14]: 538 µg·h/mL
- Cmax [4, 14]: 150 µg/mL
- half-life [4, 14]: 1.1 h
- AUC(0-t) [4, 15]: 540 µg·h/mL
- Tmax [4, 15]: 1 h
- half-life [4, 15]: 1.4 h
- AUC(0-t) [4, 16]: 613 µg·h/mL
- Cmax [4, 16]: 176 µg/mL
- half-life [4, 16]: 1.1 h
- AUC(0-t) [4, 17]: 591 µg·h/mL
- Cmax [4, 17]: 184 µg/mL
- Tmax [4, 17]: 1 h
- half-life [4, 17]: 1.2 h
- AUC(0-t) [4, 18]: 657 µg·h/mL
- Cmax [4, 18]: 167 µg/mL
- half-life [4, 18]: 1.2 h
- AUC(0-t) [4, 19]: 210 µg·h/mL
- Cmax [4, 19]: 69 µg/mL
- Tmax [4, 19]: 1 h
- half-life [4, 19]: 1.3 h
- pKa (pKa values; Acidic (first)): 2.29 ± 0.02
- pKa (pKa values; Acidic (second)): 10.24 ± 0.03
- pKa (pKa values; Basic): 6.97 ± 0.01
- peak plasma concentration ([5]; 10 mg/kg oral): 15 µg/mL
- peak plasma concentration ([5]; 100 mg/kg oral): 108 µg/mL
- bioavailability ([5]; beagle, dog, plasma, po, both 10 and 100 mg/kg doses): 75%
- time to peak plasma concentration ([5]; oral, fasted beagle dogs): ≤ 1 h
- half-life [6]: ~3 h
- peak plasma concentration ([7]; 30 mg/kg oral): 9 µg/mL
- time to peak plasma concentration ([7]; 30 mg/kg oral): ≤ 1 h
- bioavailability ([7]; rat, in vivo, 30 mg/kg oral dose): 111%
- half-life ([7]; rat, in vivo, 30 mg/kg oral dose, read-out: terminal half-life (converted)): 1.6 h
- Kp at 1 h ([7]; rat, in vivo, 1 h after IV administration, read-out: brain-to-plasma concentration ratio): 0.02
- brain/tissue distribution ([7]; rat, in vivo, mono-hydrochloride): distributes to tissues but not to brain to an appreciable extent; also recorded: peripherally restricted

Reference: patent US20200246316A1, “METHODS OF TREATING POST-SURGICAL PAIN WITH A THIAZOLINE ANTI-HYPERALGESIC AGENT” (CERSCI THERAPEUTICS, INC., priority 2019, published 2020)
